Entries after “also recorded” stand apart in the source; their conditions may differ.
What was measured:
[1] = test system: LIM 1215 cells; experiment: Marker protein expression, ACAS confocal image cytometer; format: cell-based, human; set-up: key to Marker Protein Expression: CEA / Marker Protein Expression: Integrin β4 / Marker Protein Expression: Villin: increased expression (+); down-regulated (-); unchanged (0)
Source text: Additional confirmation of the importance of this seven amino-acid sequence was obtained by scoring for various marker proteins on the LIM 1215 cells. An ACAS confocal image cytometer was used to detect a number of markers on the cells without detaching the cells from the culture dish, as is normally done for fluorescence activated cell sorting (FACS) analysis. […] The expression of a number of other markers was unchanged (0) by treatment with EGF-β. Analogous to the previous results characterizing gross, observable morphology changes, neither EGF-α nor EGF-β/α changed the levels of these marker proteins, while EGF-α/β changed the expression of the marker proteins in a manner similar to that seen with EGF-β.

[2] = test system: LIM 1215 human colon epithelial cells; experiment: Morphogenic activity: fluorescent actin staining (NBD phalloidin), confocal microscope; format: cell-based; conditions: 420 picomolar peptide, three days, serum-free media
Method: c) Staining of LIM 1215 human colon cells with fluorescent dye. LIM 1215 cells were grown in RPMI-1640 media supplemented with 5% FBS, 1 μg/ml of bovine insulin, 10 μm of alpha thioglycerol, and 1× PSG. At the time of assay, the cells were more than 30% confluent and were proliferating rapidly. The cells were seeded into 24-well plates at 25,000 cells/well in serum-free media (McCoy's-5A, supplemented with 4 μg/ml of transferrin, 10 μg/ml of insulin, 10 mM of selenic acid, […], and 0.03% BSA). Test peptides were added at a concentration of 420 picomolar immediately on day zero; the total volume was 1.0 ml. Controls included no treatment and serial dilutions of FBS. The 24-well plates were then incubated for three days at 37° C. and 5% CO2, after which the media were removed by aspiration and the cells were washed in 1.0 ml of PBS with 0.5% BSA. All subsequent washings were performed with this buffer. The cells were then fixed in Orthopermeafix (Ortho Chemicals Co.) for thirty minutes at room temperature, and were washed twice. Then 200 μl of a 10 nM NBD phalloidin fluorescent dye solution in PBS were added and the cells were incubated in the dark (wrapped in aluminum foil) for thirty minutes at room temperature. The cells were washed twice, and inspected using a confocal microscope.
d) Morphogenic activity of peptides on colon epithelial cells. Upon treatment of LIM 1215 cells with the EGF-β peptide, it was evident that the morphology of the cells changed dramatically. […] In the absence of treatment, the cells appeared small and rounded. […] Because the cells were proliferating rapidly in 5% FBS serum-containing media (FIG. 3), the unique morphology caused by the EGF-β peptide could not have been due solely to its ability to stimulate proliferation. Moreover, the difference in morphogenic activities between EGF-β and EGF-α must have originated in the last sixteen amino acids of the C-terminus, as this is the only difference in sequence between the two peptides.
Further localization of morphogenic activity was obtained by use of the chimeric peptides, EGF-β/α and EGF-α/β. […] Again, the only difference in sequence between these two peptides is the last seven amino acids of the C-terminal portion.

[3] = test system: LIM 1215 human colon epithelial cells; experiment: Crystal violet proliferation assay; format: cell-based; conditions: three days, low serum (0.05%) media, crystal violet absorbance at 595 nm
Source text: FIG. 2. This figure is a graphical representation of the proliferative effect of the peptides of the invention on human colonic epithelial cells in vitro. These peptides are designated in the figure as EGF-β (SEQ ID NO: 2, above), represented by the closed circles, and as EGF-α/β (SEQ ID NO: 1, above), represented by the open circles. For comparison, two other peptides of equal length are included, designated as EGF-α and EGF-β/α, and represented by the closed squares and open squares, respectively. The latter two are homologs based on the EGF domain of extracellular NDF-heregulins and consist of the amino acid sequences shown further below in this text (SEQ ID NOS: 3 and 4, respectively). Proliferation is measured with a crystal violet dye which stains the cell protein and is indicative of cell number. […] The picomolar (pM) concentration of peptide used to treat the cells is shown on the horizontal axis.
a) Crystal Violet Proliferation Assay. The human colon epithelial cell line, LIM 1215 (Whitehead, R. H. et al., J. Natl. Cancer Inst. 4:759-765, 1985) was grown in RPMI-1640 media supplemented with 5% FBS, 1 μg/ml of hydrocortisone, 1 μg/ml of bovine insulin, 10 μM of alpha thioglycerol, and 1X PSG (0.292 mg/ml of 1-glutamine, 100 units/ml of penicillin G, and 100 μg/ml of streptomycin sulfate). At the start of the assay, the cells were 30% confluent and were proliferating rapidly. Cells were released by trypsin, washed with PBS, and seeded into 96-well plates at 5000 cells/well in low serum (0.05%) media (McCoy's-5A supplemented with 4 μg/ml of transferrin, 10 μg/ml of insulin, 10 mM of selenic acid, 4 nM of triiodothyronine, and 0.03% BSA). Dilutions of test peptide were added immediately on day zero; the total volume was 100 μl. Controls included no treatment and serial dilutions of FBS. The 96-well plates were then incubated for three days at 37° C. in a 5% CO2 atmosphere. The media were removed by aspiration and 30 μl of 2% crystal violet (Difco) in methanol was added to the cells for fifteen minutes of staining. Excess dye was washed away with distilled water. To each well 100 μl of 0.04N HCL in isopropanol was added and the dye was resolubilized by mixing. Absorbance was determined at 595 nm and the values were plotted as fold-stimulation over background (or no treatment).
b) Stimulation of colon cell proliferation. […] The chimeric peptides helped to pinpoint this determinant of activity to the seven residues corresponding to amino acids 222-228 of full length extracellular NDF/heregulin. […]

[4] = test system: Schwann cells; experiment: Schwann cell proliferation (BrdU incorporation, NGFR staining); format: cell-based, rat; conditions: for percent of Schwann cells proliferating: BrdU for six hours after 24 h; for Schwann cell proliferation, comparison in words: versus EGF-β/α
Method: The sciatic nerve from neonatal rats was used to generate a primary culture of Schwann cells. The cells were plated overnight in 10% serum without exposure to any growth factor. The following day, EGF-β, EGF-α/βand EGF-β/α were added at the concentrations in nanograms per milliliter(ng/ml) shown in Table 2, below. Twenty four hours later, BrdU was added to each test sample for six hours. BrdU is a thymidine analog which is incorporated into the DNA of dividing cells and can be detected by standard immunochemistry procedures. This agent thus provides a means for determining expansion of the total amount of DNA in a test sample and is a measure of whether cell proliferation has occurred. Upon the completion of the test period, Schwann cells were fixed and analyzed immunohistochemically. The cells were first stained for nerve growth factor receptor (NGFR), which is a known marker for Schwann cells in culture, followed by staining for BrdU. Cell counting was carried out as follows: in a given microscope field of view, all recognizable Schwann cells were counted, then the number of cells showing positive for BrdU staining were also counted. For each test sample (or well) two or three fields were counted, amounting to about 200 to 300 Schwann cells in all. The result is expressed in Table 2 as the percent of Schwann cells proliferating.

[5] = biological target: endoproteinase Lys-C (Lysobacter enzymogenes, UniProt Q7M135); experiment: Digestion by endoproteinase Lys-C (peptide mapping); conditions: cleavage at lysine residue at position 211
endoproteinase Lys-C, sequence (Q7M135 whole entry, the tested form may be a part): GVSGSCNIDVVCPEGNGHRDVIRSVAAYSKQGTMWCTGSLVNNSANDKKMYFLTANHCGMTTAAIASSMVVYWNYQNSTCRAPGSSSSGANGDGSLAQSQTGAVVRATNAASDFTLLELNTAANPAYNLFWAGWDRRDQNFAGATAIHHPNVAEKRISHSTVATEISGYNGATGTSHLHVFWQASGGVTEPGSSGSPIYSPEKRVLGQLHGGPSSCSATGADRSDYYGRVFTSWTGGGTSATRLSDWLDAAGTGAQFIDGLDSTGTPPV
Source text: The initial studies referred to here utilized peptides based solely on sequences of the EGF-like domain of the aforementioned α2 and β1 forms of NDF/heregulin, that is to say, that portion of the extracellular protein from amino acid residue 177 to amino acid residue 228 (see FIG. 1 herein). […] The reason for this difference was not initially apparent. However, during peptide mapping studies of the EGF-like domains of NDF/heregulins, it was discovered that the α and β forms cleaved (degraded) at different rates when subjected to digestion by endoproteinase Lys-C. […] Moreover, this phenomenon seemed limited to the lysine residue at position 211. There was no apparent difference in the rate of cleavage between α and β at any other lysine residues in the N-terminal end of the EGF-like domain.

[6] = peptide concentration 0.1 ng/ml
[7] = peptide concentration 100 ng/ml

| Substance | Marker Protein Expression: CEA [1] | Marker Protein Expression: Integrin β4 [1] | Marker Protein Expression: Villin [1] | morphological (morphogenic) changes of LIM 1215 cells [2] | proliferation of LIM 1215 cells (fold stimulation, FIG. 2) [3] | percent of Schwann cells proliferating [4, 6] | percent of Schwann cells proliferating ([4]; peptide concentration 1 ng/ml) | percent of Schwann cells proliferating ([4]; peptide concentration 10 ng/ml) | percent of Schwann cells proliferating [4, 7] | Schwann cell proliferation, comparison in words [4] | rate of cleavage by endoproteinase Lys-C [5] | expression of a number of other markers [1] |
| --- | --- | --- | --- | --- | --- | --- | --- | --- | --- | --- | --- | --- |
| EGF-α/β: chimeric 52-residue peptide SHLVK-(A)-QNYVMAS; α177-221/β222-228 of extracellular NDF/heregulin EGF-like domain (SHLVKCAEKEKTFCVNGGECFMVKDLSNPSRYLCKCQPGFTGARCQNYVMAS) | + | + | - | evidence of cell development and maturation is seen; also recorded: caused apparent morphogenic changes | best results for cell proliferation; also recorded: displayed significant mitogenic activity | 1% | 10% | 10% | 17% | stimulated the proliferation of Schwann cells to a significantly greater extent than EGF-β/α |  |  |
| EGF-α: comparison 52-residue peptide SHLVK-(A)-TENVPMK; EGF-like domain (residues 177-228) of NDF/heregulin α2 (SHLVKCAEKEKTFCVNGGECFMVKDLSNPSRYLCKCQPGFTGARCTENVPMK) [reference compound] | 0 | 0 | 0 | did not produce the same morphogenic changes | Some proliferation was obtained; also recorded: not as potent a mitogen |  |  |  |  |  | faster enzymatic cleavage |  |
| EGF-β/α: comparison chimeric 52-residue peptide SHLVK-(B)-TENVPMK; β177-221/α222-228 of extracellular NDF/heregulin (SHLVKCAEKEKTFCVNGGECFMVKDLSNPSRYLCKCPNEFTGDRCTENVPMK) [reference compound] | 0 | 0 | 0 | appear unchanged; also recorded: did not produce any noticeable change | No effect was seen; also recorded: did not show any detectable effect | 1% | 2% | 5% | 10% |  |  |  |
| EGF-β: 52-residue peptide SHLVK-(B)-QNYVMAS; EGF-like domain (residues 177-228) of NDF/heregulin β1 (SHLVKCAEKEKTFCVNGGECFMVKDLSNPSRYLCKCPNEFTGDRCQNYVMAS) | + | + | - | Evidence of cellular morphological changes is seen; also recorded: noticeable change in morphology, becoming enlarged and assuming a cobblestone-like appearance | best results for cell proliferation; also recorded: stimulated the proliferation of LIM 1215 cells | 7.5% | 13% | 14% | 19% | stimulated the proliferation of Schwann cells to a significantly greater extent than EGF-β/α | more resistant to this enzyme and cleaved at a slower rate | unchanged |

From US5929032A, “Method for treating Schwann and colon cells in vitro” (Amgen Inc., priority 1996, dated 1999)
